One series addresses T1, Rev-Erb alpha (Homo sapiens, UniProt P20393).
T1 sequence (P20393 284-614 limits assumed): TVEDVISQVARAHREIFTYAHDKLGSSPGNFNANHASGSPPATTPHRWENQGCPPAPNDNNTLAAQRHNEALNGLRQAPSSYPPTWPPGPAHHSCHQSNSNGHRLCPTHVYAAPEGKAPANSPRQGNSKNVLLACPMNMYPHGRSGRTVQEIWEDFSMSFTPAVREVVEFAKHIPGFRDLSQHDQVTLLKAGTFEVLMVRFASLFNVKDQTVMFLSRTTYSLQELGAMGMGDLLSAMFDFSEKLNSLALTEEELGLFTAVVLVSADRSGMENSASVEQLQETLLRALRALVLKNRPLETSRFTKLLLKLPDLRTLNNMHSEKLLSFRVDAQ
In words: M2H (mammalian two-hybrid) cellular activation assay of Rev-Erb alpha. Format: cell-based. To be noted: for EC50: M2H assay, HEK293 cells, Gal4-Rev-Erb alpha / VP16-NCoR, luciferase reporter. The gist of the method:
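Six-point dose-response, 18 h, 37 °C, serum-free, in HEK293 cells carrying a Gal4-RE luciferase reporter with Gal4-Rev-Erb alpha or beta plus VP16-NCoR (corepressor interaction readout). EC50 and TOP activation (%) derived from luminescence across four experiments.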

These results are taken from patent US9586963B2 (GENFIT, priority 2011, dated 2017).

Where a name gives a salt, the structure may show the parent alone.

Usually melting point stands for the temperature, or range, at which the solid turns liquid. As a reminder, the EC50 is the concentration giving half of the maximal effect. A low value points to a more potent agent.

In turn, `FC(F)(F)c1ccc(-c2nccs2)c(Oc2ccc3nnc(Cl)n3n2)c1` (as salt: potassium) [Cpd.4-105, 3-chloro-6-(2-(thiazol-2-yl)-5-(trifluoromethyl)phenoxy)-[1,2,4]triazolo[4,3-b]pyridazine] displayed a melting point of 171 to 173 °C.

Turning to `FC(F)(F)c1ccc(-c2cscn2)c(Oc2ccc3nnc(Cl)n3n2)c1` (as salt: potassium) [Cpd.4-106, 3-chloro-6-(2-(thiazol-4-yl)-5-(trifluoromethyl)phenoxy)-[1,2,4]triazolo[4,3-b]pyridazine], the melting point fell in the range of 191 to 192 °C. Still for that read-out and setting: for `NCc1ccc(-c2ccccc2)c(Oc2ccc3nnc(Cl)n3n2)c1` (as salt: sodium) [Cpd.4-65, 3-chloro-6-(4-aminomethyl-biphenyl-2-yloxy)-[1,2,4]triazolo[4,3-b]pyridazine] the value was 164.6 to 167.7 °C; for `OCc1ccc(Oc2ccc3nnc(Cl)n3n2)c(-c2ccccc2)c1` (as salt: sodium) [Cpd.4-66, 3-chloro-6-(5-hydroxymethyl-biphenyl-2-yloxy)-[1,2,4]triazolo[4,3-b]pyridazine], 72 °C; for `COC(=O)c1ccc(Oc2ccc3nnc(Cl)n3n2)c(-c2ccccc2)c1` (as salt: sodium) [Cpd.4-69, 3-chloro-6-(5-methyloxycarbonyl-biphenyl-2-yloxy)-[1,2,4]triazolo[4,3-b]pyridazine], 75.9 to 78.8 °C.

As for `NC(=O)c1cccc(-c2ccc(C(F)(F)F)cc2Oc2ccc3nnc(Cl)n3n2)c1` (as salt: sodium) [Cpd.4-72, 3-chloro-6-(4-trifluoromethyl-3′-aminocarbonyl-biphenyl-2-yloxy)-[1,2,4]triazolo[4,3-b]pyridazine], the melting point was 217.7 to 220 °C. Still for that read-out and setting: for `COc1cccc(-c2cc(F)ccc2Oc2ccc3nnc(Cl)n3n2)c1` (as salt: sodium) [Cpd.4-76, 3-chloro-6-(5-fluoro-3′ methoxy-biphenyl-2-yloxy)-[1,2,4]triazolo[4,3-b]pyridazine] the value was 91.3 to 93.4 °C. In the case of `COc1ccccc1-c1cccc(Oc2ccc3nnc(Cl)n3n2)c1` [Cpd.3-8, 6-(2′-methoxy-biphenyl-3-yloxy)-3-chloro-[1,2,4]triazolo[4,3-b]pyridazine], the melting point worked out at 82.5 °C. The same compound came in with an EC50 on Rev-Erb alpha of 1 to 6 µM. Regarding `Fc1ccc(-c2cccc(Oc3ccc4nnc(Cl)n4n3)c2)cc1` [Cpd.3-9, 6-(4′-fluoro-biphenyl-3-yloxy)-3-chloro-[1,2,4]triazolo[4,3-b]pyridazine], the melting point was determined as 88 °C. For the same compound, the EC50 at Rev-Erb alpha lay in the range of 0.1 to 1 µM. The corresponding values for `Fc1ccccc1-c1cccc(Oc2ccc3nnc(Cl)n3n2)c1` [Cpd.3-10, 6-(2′-fluoro-biphenyl-3-yloxy)-3-chloro-[1,2,4]triazolo[4,3-b]pyridazine] are 128.6 °C and 0.1 to 1 µM. On the same counts, the results for `Clc1ccccc1-c1cccc(Oc2ccc3nnc(Cl)n3n2)c1` [Cpd.3-11, 6-(2′-chloro-biphenyl-3-yloxy)-3-chloro-[1,2,4]triazolo[4,3-b]pyridazine] are 82.4 °C and 1 to 6 µM. On the same counts, the results for `Clc1ccc(-c2cccc(Oc3ccc4nnc(Cl)n4n3)c2)cc1` [Cpd.3-12, 6-(4′-chloro-biphenyl-3-yloxy)-3-chloro-[1,2,4]triazolo[4,3-b]pyridazine] are 128 °C and 1 to 6 µM.

`Clc1cccc(-c2cccc(Oc3ccc4nnc(Cl)n4n3)c2)c1` [Cpd.3-13, 3-chloro-6-(3′-chlorobiphenyl-3-yloxy)-[1,2,4]triazolo[4,3-b]pyridazine] showed a melting point of 77.5 to 123.8 °C. At Rev-Erb alpha, this compound yielded an EC50 of 0.1 to 1 µM. On the same counts, the results for `COc1cccc(-c2cccc(Oc3ccc4nnc(Cl)n4n3)c2)c1` [Cpd.3-14, 3-chloro-6-(3′-methoxybiphenyl-3-yloxy)-[1,2,4]triazolo[4,3-b]pyridazine] are 91.46 °C and 1 to 6 µM. On the same counts, the results for `COc1ccc(Oc2ccc3nnc(Cl)n3n2)c(-c2ccccc2)c1` [Cpd.4-14, 6-(5-methoxybiphenyl-2-yloxy)-3-chloro-[1,2,4]triazolo[4,3-b]pyridazine] are 164.6 °C and 0.1 to 1 µM. Regarding `Fc1ccc(Oc2ccc3nnc(Cl)n3n2)c(-c2ccccc2)c1` [Cpd.4-15, 6-(5-fluoro-biphenyl-2-yloxy)-3-chloro-[1,2,4]triazolo[4,3-b]pyridazine], the melting point was 148.4 °C. On Rev-Erb alpha, this compound returned an EC50 of 0.1 to 1 µM. The corresponding values for `Fc1ccccc1-c1ccccc1Oc1ccc2nnc(Cl)n2n1` [Cpd.4-17, 6-(2′-fluoro-biphenyl-2-yloxy)-3-chloro-[1,2,4]triazolo[4,3-b]pyridazine] are 95.9 °C and 0.1 to 1 µM. On the same counts, the results for `Fc1ccc(-c2ccccc2Oc2ccc3nnc(Cl)n3n2)cc1F` [Cpd.4-20, 6-(3′,4′-difluoro-biphenyl-2-yloxy)-3-chloro-[1,2,4]triazolo[4,3-b]pyridazine] are 129.3 °C and 0.1 to 1 µM. The corresponding values for `Oc1cccc(-c2ccccc2Oc2ccc3nnc(Cl)n3n2)c1` [Cpd.4-21, 6-(3′-hydroxy-biphenyl-2-yloxy)-3-chloro-[1,2,4]triazolo[4,3-b]pyridazine] are 203.7 °C and 0.1 to 1 µM. The compound `COc1ccc(-c2ccccc2Oc2ccc3nnc(Cl)n3n2)cc1` [Cpd.4-22, 6-(4′-methoxy-biphenyl-2-yloxy)-3-chloro-[1,2,4]triazolo[4,3-b]pyridazine] registered a melting point of 138.1 °C. On Rev-Erb alpha, this compound displayed a concentration for a half-maximal effect (EC50) of 0.1 to 1 µM. In the case of `Cc1ccc(-c2ccccc2Oc2ccc3nnc(Cl)n3n2)cc1` [Cpd.4-23, 6-(4′-methyl-biphenyl-2-yloxy)-3-chloro-[1,2,4]triazolo[4,3-b]pyridazine], the melting point lay in the range of 166.9 to 173.4 °C. This compound also returned a 50% effective concentration (EC50) at Rev-Erb alpha of 0.1 to 1 µM. On the same counts, the results for `FC(F)(F)c1ccc(-c2ccccc2Oc2ccc3nnc(Cl)n3n2)cc1` [Cpd.4-24, 6-(4′-trifluoromethyl-biphenyl-2-yloxy)-3-chloro-[1,2,4]triazolo[4,3-b]pyridazine] are 185.8 °C and 0.1 to 1 µM. The corresponding values for `Clc1ccccc1-c1ccccc1Oc1ccc2nnc(Cl)n2n1` [Cpd.4-25, 6-(2′-chloro-biphenyl-2-yloxy)-3-chloro-[1,2,4]triazolo[4,3-b]pyridazine] are 81.9 °C and < 0.1 µM.

Compound `O=C(O)c1ccc(Oc2ccc3nnc(Cl)n3n2)c(-c2ccccc2)c1` [Cpd.4-59, 3-chloro-6-(5-hydroxycarbonyl-biphenyl-2-yloxy)-[1,2,4]triazolo[4,3-b]pyridazine] had a melting point of 266.9 to 267.7 °C. Same read-out and setting: for `CNC(Cc1ccccc1)c1ccc(Oc2ccc3nnc(Cl)n3n2)c(-c2ccccc2)c1` (centres unmarked) [Cpd.4-158, 3-chloro-6-(5-(benzylmethylaminomethyl)biphenyl-2-yloxy)-[1,2,4]triazolo[4,3-b]pyridazine] the value was 60.8 to 62.5 °C; for `CC(NCCc1ccccc1)c1ccc(Oc2ccc3nnc(Cl)n3n2)c(-c2ccccc2)c1` (centres unmarked) [Cpd.4-165, 3-chloro-6-(5-(methylphenethylaminomethyl)biphenyl-2-yloxy)-[1,2,4]triazolo[4,3-b]pyridazine], 114.3 to 117 °C. Same read-out and setting: the result for `CC(NC1CCCCC1)c1ccc(Oc2ccc3nnc(Cl)n3n2)c(-c2ccccc2)c1` (centres unmarked) [Cpd.4-167, 3-chloro-6-(5-(methyl-cyclohexylaminomethyl)biphenyl-2-yloxy)-[1,2,4]triazolo[4,3-b]pyridazine] reads 50.6 °C; that for `FC(F)(F)c1ccc(-c2ccccc2)c(Oc2cc(-c3ccccc3)c3nnc(Cl)n3n2)c1` [Cpd.5-4, 3-chloro-8-phenyl-6-(4-trifluoromethyl-biphenyl-2-yloxy)-[1,2,4]triazolo[4,3-b]pyridazine], 162 to 164 °C; that for `FC(F)(F)c1ccc(-c2ccccc2)c(Oc2nn3c(Cl)nnc3cc2C2CC2)c1` [Cpd.5-14, 3-chloro-7-cyclopropyl-6-(4-trifluoromethyl-biphenyl-2-yloxy)-[1,2,4]triazolo[4,3-b]pyridazine], 130 to 133 °C. `CCc1ncncc1-c1ccc(C(F)(F)F)cc1Oc1nn2c(Cl)nnc2cc1C` [Cpd.5-52, 3-chloro-6-(2-(4-ethylpyrimidin-5-yl)-5-(trifluoromethyl)phenoxy)-7-methyl-[1,2,4]triazolo[4,3-b]pyridazine] showed a concentration giving a half-maximal response (EC50) on Rev-Erb alpha of 1 to 6 µM.

For the compound `CCc1ncncc1-c1ccc(C(F)(F)F)cc1Oc1cc(C)c2nnc(Cl)n2n1` [Cpd.5-53, 3-chloro-6-(2-(4-ethylpyrimidin-5-yl)-5-(trifluoromethyl)phenoxy)-8-methyl-[1,2,4]triazolo[4,3-b]pyridazine], the EC50 on Rev-Erb alpha lay in the range of 1 to 6 µM.

`Cc1nc(-c2ccc(Oc3nn4c(Cl)nnc4cc3C)c(-c3ccccc3)c2)no1` [Cpd.5-65, 3-chloro-7-methyl-6-(4-(5-methyl-1,2,4-oxadiazol-3-yl)-2-(phenyl)phenoxy)-[1,2,4]triazolo[4,3-b]pyridazine] displayed an EC50 on Rev-Erb alpha of 1 to 6 µM. On to `Fc1ccc(Oc2ccc3nnc(Cl)n3n2)c(-c2cccc(CN3CCCCC3)c2)c1` [hydrochloride], for which the Emax at Rev-Erb alpha (HEK293, read-out: TOP activation) is > 130%. For the same compound, the EC50 on Rev-Erb alpha is > 6 µM.
